Where “and” joins values, the source holds several entries; their conditions need not be identical. Equal entries are not always repeated. Where two headings read alike, the source gives them in different places. Each block holds one substance with its values, some of them ahead of it. *1 amine or outer side, *2 acyl side, *3 side chain or, on linkers, in order; H or OH if unused. Side-chain parts run from the residue outwards. [ ]: non-standard residue; d: D form. The star is where a group is joined. C20 diacid = O=C(O)CCCCCCCCCCCCCCCCCCC(=O)*; γGlu = O=C(O)[C@H](CCC(=O)[*:2])N[*:1]; εLys = N[C@@H](CCCCN[*:1])C(=O)[*:2]; pGlu = O=C1CC[C@@H](C(=O)O)N1; αMeL = CC(C)C[C@](C)(N)C(=O)O; AEEA = NCCOCCOCC(=O)O; Aib = CC(C)(N)C(=O)O
How the values were obtained:
[1] = system: pre-existing antibodies (ADA) in treatment-naive normal human serum; test: Pre-existing reactivity (ACE assay format); type: binding; conditions: for Pre-existing Reactivity 90th percentile T2 inhibition >50 donors: ACE assay format
Protocol: This assay assessed the presence of pre-existing antibodies (ADA) against the tested molecules in treatment-naive normal human serum (NHS). Diluted NHS was incubated overnight on a Pierce Streptavidin plate coated with biotinylated tested molecules. On the following day, the captured binding proteins were acid eluted, hard-coated to a Mesoscale (MSD) plate, and detected with a combination of biotin-labeled molecule and ruthenium-labeled streptavidin. If anti-drug antibodies were present, they would bind the labeled drug and the resulting signal was referred to as Tier 1 signal (expressed as electrochemiluminescence). […] The presence of pre-existing anti-drug antibodies was expressed as magnitude of the 90th percentile of Tier 2 inhibition. The 90th percentile of Tier 2 inhibition is a statistical tool to assess the magnitude of specificity of Tier 1 reactivity. This 90th percentile was used to rank molecules in terms of ADA risk.

[2] = Pharmacokinetics in CD-1 mice, single 100 nmol/kg subcutaneous dose; type: in vivo; conditions: mouse, plasma, sc, male CD-1 mice, mean
Protocol: (§1) Plasma concentrations of compounds were determined by LC/MS methods. For each assay, the compound and an internal standard (IS), were extracted from 100% mouse, rat, pig, or monkey plasma (70 μL) using Isopropanol-Methanol. Two distinct layers were formed upon centrifugation with the compound and the IS located in the supernatant layer. An aliquot of the supernatant (150 μL) was transferred to a Waters Sirocco Protein Precipitation Plate. The supernatant was eluted using a positive pressure manifold. The supernatant was mixed with 100-2 Water-Formic acid (400 μL) in a pretreated Sep-Pak tC18 SPE plate and eluted to waste. The peptide and IS were eluted with Acetonitrile-Formic acid (100 μL) in 2 steps (50 μL each step). The elution (40 μL) from SPE plate was mixed with diluent solution (1.875 μL 5× invitrosol and 3.125 μL 1% formic acid in water, 80 μL). A final sample (10 μl) was loaded onto a Xselect CSH C18 IS column (3.5 μm 2.1×20 mm). The column effluent was directed into a Thermo Fisher Scientific Orbitrap (Exploris 240) mass spectrometer for detection and quantitation.
Male CD-1 mice were administered a single subcutaneous dose (100 nmol/kg) of compound in 40 mM Tris-HCl 5% D-mannitol (pH 8) at a volume of 5 mL/kg. Blood was collected at 6, 24, 48, 96, 168, 240, 288, and 336 hours postdose for pharmacokinetic characterization.

[3] = Pharmacokinetics in Cynomolgus monkeys, single subcutaneous or intravenous dose; type: in vivo
Protocol: as §1
Male and female Cynomolgus monkeys were administered a single subcutaneous dose or intravenous dose (183 to 190 nmol/kg) of compound in 40 mM Tris-HCl 5% D-mannitol (pH 8) at a volume of 0.5 mL/kg. Blood was collected from each animal at 0.5, 3, 6, 24, 48, 72, 96, 168, 240, 336, 408, and 504 hours postdose for pharmacokinetic characterization.

[4] = both sexes, cynomolgus monkey, plasma, iv, 183 nmol/kg, single intravenous dose 183 nmol/kg, Mean
[5] = both sexes, cynomolgus monkey, plasma, iv, 183 nmol/kg, single intravenous dose 183 nmol/kg, individual animal
[6] = single intravenous dose 183 nmol/kg, individual animal
[7] = single subcutaneous dose 183 nmol/kg, individual animal
[8] = both sexes, cynomolgus monkey, plasma, iv, 190 nmol/kg, single intravenous dose 190 nmol/kg, Mean
[9] = both sexes, cynomolgus monkey, plasma, iv, 190 nmol/kg, single intravenous dose 190 nmol/kg, individual animal
[10] = single intravenous dose 190 nmol/kg, individual animal
[11] = single subcutaneous dose 190 nmol/kg, individual animal
[12] = both sexes, cynomolgus monkey, plasma, iv, 187 nmol/kg, single intravenous dose 187 nmol/kg, Mean
[13] = both sexes, cynomolgus monkey, plasma, iv, 187 nmol/kg, single intravenous dose 187 nmol/kg, individual animal
[14] = single intravenous dose 187 nmol/kg, individual animal
[15] = single subcutaneous dose 187 nmol/kg, individual animal

Pre-existing Reactivity 90th percentile T2 inhibition >50 donors [1]: 14.3% | AUC0-inf [2]: 15 µM·h | CL/F [2]: 162 mL/day/kg | Cmax [2]: 0.27 µM | Tmax [2]: 24 h | half-life [2]: 25.1 h | clearance [3, 4]: 9.89 mL/day/kg | half-life [3, 4]: 98.1 h | clearance [3, 5]: 9.41 mL/day/kg | half-life [3, 5]: 83.1 h | half-life ([3]; both sexes, cynomolgus monkey, plasma, sc, 183 nmol/kg, single subcutaneous dose 183 nmol/kg, Mean): 136 h | CL/F ([3]; both sexes, cynomolgus monkey, plasma, sc, 183 nmol/kg, single subcutaneous dose 183 nmol/kg, Mean, read-out: CL/F (converted)): 12.9 mL/day/kg | Tmax ([3]; both sexes, cynomolgus monkey, plasma, sc, 183 nmol/kg, single subcutaneous dose 183 nmol/kg, Mean, read-out: Tmax): 60 h | CL/F ([3]; both sexes, cynomolgus monkey, plasma, sc, 183 nmol/kg, single subcutaneous dose 183 nmol/kg, individual animal, read-out: CL/F (converted)): 12.5 mL/day/kg | Tmax ([3]; both sexes, cynomolgus monkey, plasma, sc, 183 nmol/kg, single subcutaneous dose 183 nmol/kg, individual animal, read-out: Tmax): 72 h | AUC0-inf ([3]; both sexes, cynomolgus monkey, plasma, sc, single subcutaneous dose 183 nmol/kg, Mean, read-out: AUC0-inf): 365 µM·h | Cmax ([3]; both sexes, cynomolgus monkey, plasma, sc, single subcutaneous dose 183 nmol/kg, Mean, read-out: Cmax): 2 µM | AUC0-inf ([3]; both sexes, cynomolgus monkey, plasma, single intravenous dose 183 nmol/kg, Mean, read-out: AUC0-inf): 446 µM·h | C0 ([3]; both sexes, cynomolgus monkey, plasma, single intravenous dose 183 nmol/kg, Mean, read-out: C0): 4.74 µM | AUC0-inf [3, 6]: 467 µM·h and 424 µM·h | C0 [3, 6]: 4.16 µM and 5.32 µM | CL [3, 6]: 10.3 mL/day/kg | T1/2 [3, 6]: 113 h | AUC0-inf [3, 7]: 387 µM·h and 342 µM·h | CL/F [3, 7]: 13.2 mL/day/kg | Cmax [3, 7]: 1.72 µM and 2.28 µM | T1/2 [3, 7]: 182 h and 90.2 h | Tmax [3, 7]: 48 h
Substance: [pGlu]GSPSGIVTS[αMeL]DVPT[Aib][αMeL]LQKILEQERAEKARQQAK([γGlu-AEEA-εLys-C20 diacid])EAAEILAQV-NH2 [SEQ ID NO: 22, Pyr-GSPSGIVTS αMeL DVPT Aib αMeL LQKILEQERAEKARQQAK(γE-(2-[2-(2-Amino-ethoxy)-ethoxy]-acetyl)-ϵK-CO-(CH2)18-CO2H)EAAEILAQV-NH2]

Pre-existing Reactivity 90th percentile T2 inhibition >50 donors [1]: 4.5% | AUC0-inf [2]: 25 µM·h | CL/F [2]: 96.2 mL/day/kg | Cmax [2]: 0.366 µM | Tmax [2]: 24 h | half-life [2]: 32.5 h | clearance [3, 8]: 11.5 mL/day/kg | half-life [3, 8]: 113 h | clearance [3, 9]: 12.8 mL/day/kg | half-life [3, 9]: 100 h | half-life ([3]; both sexes, cynomolgus monkey, plasma, sc, 190 nmol/kg, single subcutaneous dose 190 nmol/kg, Mean): 199 h | CL/F ([3]; both sexes, cynomolgus monkey, plasma, sc, 190 nmol/kg, single subcutaneous dose 190 nmol/kg, Mean, read-out: CL/F (converted)): 12.3 mL/day/kg | Tmax ([3]; both sexes, cynomolgus monkey, plasma, sc, 190 nmol/kg, single subcutaneous dose 190 nmol/kg, Mean, read-out: Tmax): 24 h | half-life ([3]; both sexes, cynomolgus monkey, plasma, sc, 190 nmol/kg, single subcutaneous dose 190 nmol/kg, individual animal): 184 h | CL/F ([3]; both sexes, cynomolgus monkey, plasma, sc, 190 nmol/kg, single subcutaneous dose 190 nmol/kg, individual animal, read-out: CL/F (converted)): 14.4 mL/day/kg | Tmax ([3]; both sexes, cynomolgus monkey, plasma, sc, 190 nmol/kg, single subcutaneous dose 190 nmol/kg, individual animal, read-out: Tmax): 24 h | AUC0-inf ([3]; both sexes, cynomolgus monkey, plasma, sc, single subcutaneous dose 190 nmol/kg, Mean, read-out: AUC0-inf): 458 µM·h | Cmax ([3]; both sexes, cynomolgus monkey, plasma, sc, single subcutaneous dose 190 nmol/kg, Mean, read-out: Cmax): 1.61 µM | AUC0-inf ([3]; both sexes, cynomolgus monkey, plasma, single intravenous dose 190 nmol/kg, Mean, read-out: AUC0-inf): 402 µM·h | C0 ([3]; both sexes, cynomolgus monkey, plasma, single intravenous dose 190 nmol/kg, Mean, read-out: C0): 3.5 µM | AUC0-inf [3, 10]: 355 µM·h and 449 µM·h | C0 [3, 10]: 3.04 µM and 3.96 µM | CL [3, 10]: 10.1 mL/day/kg | T1/2 [3, 10]: 126 h | AUC0-inf [3, 11]: 364 µM·h and 551 µM·h | CL/F [3, 11]: 10.2 mL/day/kg | Cmax [3, 11]: 1.54 µM and 1.68 µM | T1/2 [3, 11]: 214 h
Substance: {C20 diacid-εLys-AEEA-γGlu}-GSPSIVTS[αMeL]DVPT[Aib][αMeL]LQKILEQERAEKARQQATEAAEILAQV-NH2 [SEQ ID NO: 25]

Pre-existing Reactivity 90th percentile T2 inhibition >50 donors [1]: 37.9% | AUC0-inf [2]: 25.7 µM·h | CL/F [2]: 94.6 mL/day/kg | Cmax [2]: 0.327 µM | Tmax [2]: 24 h | half-life [2]: 22.8 h | clearance [3, 12]: 14.7 mL/day/kg | half-life [3, 12]: 91.6 h | clearance [3, 13]: 12.2 mL/day/kg | half-life [3, 13]: 91.9 h | half-life ([3]; both sexes, cynomolgus monkey, plasma, sc, 187 nmol/kg, single subcutaneous dose 187 nmol/kg, Mean): 81.9 h | CL/F ([3]; both sexes, cynomolgus monkey, plasma, sc, 187 nmol/kg, single subcutaneous dose 187 nmol/kg, Mean, read-out: CL/F (converted)): 19.5 mL/day/kg | Tmax ([3]; both sexes, cynomolgus monkey, plasma, sc, 187 nmol/kg, single subcutaneous dose 187 nmol/kg, Mean, read-out: Tmax): 48 h | half-life ([3]; both sexes, cynomolgus monkey, plasma, sc, 187 nmol/kg, single subcutaneous dose 187 nmol/kg, individual animal): 72 h | CL/F ([3]; both sexes, cynomolgus monkey, plasma, sc, 187 nmol/kg, single subcutaneous dose 187 nmol/kg, individual animal, read-out: CL/F (converted)): 20.8 mL/day/kg | Tmax ([3]; both sexes, cynomolgus monkey, plasma, sc, 187 nmol/kg, single subcutaneous dose 187 nmol/kg, individual animal, read-out: Tmax): 48 h | AUC0-inf ([3]; both sexes, cynomolgus monkey, plasma, sc, single subcutaneous dose 187 nmol/kg, Mean, read-out: AUC0-inf): 238 µM·h | Cmax ([3]; both sexes, cynomolgus monkey, plasma, sc, single subcutaneous dose 187 nmol/kg, Mean, read-out: Cmax): 1.18 µM | AUC0-inf ([3]; both sexes, cynomolgus monkey, plasma, single intravenous dose 187 nmol/kg, Mean, read-out: AUC0-inf): 315 µM·h | C0 ([3]; both sexes, cynomolgus monkey, plasma, single intravenous dose 187 nmol/kg, Mean, read-out: C0): 4.6 µM | AUC0-inf [3, 14]: 369 µM·h and 261 µM·h | C0 [3, 14]: 5.04 µM and 4.15 µM | CL [3, 14]: 17.2 mL/day/kg | T1/2 [3, 14]: 91.3 h | AUC0-inf [3, 15]: 221 µM·h and 255 µM·h | CL/F [3, 15]: 18.1 mL/day/kg | Cmax [3, 15]: 1.1 µM and 1.26 µM | T1/2 [3, 15]: 91.7 h
Substance: Ac-GSPSIVTS[αMeL]DVPT[Aib][αMeL]LQKILEQERAEKARQQAK([γGlu-AEEA-εLys-C20 diacid])EAAEILAQV-NH2 [SEQ ID NO: 1, Ac-GSPSIVTS αMeL DVPT Aib αMeL LQKILEQERAEKARQQAK(γE-(2-[2-(2-Amino-ethoxy)-ethoxy]-acetyl)-ϵK-CO-(CH2)18-CO2H)EAAEILAQV-NH2]
90th percentile Tier 2 inhibition (pre-existing anti-drug antibodies) [1]: higher 90th percentile Tier 2 inhibition than polypeptides comprising SEQ ID NOs: 22 and 25
